Results reported in patent US20030018166A1 (priority 2000, published 2003).
Entries after “also recorded” stand apart in the source; their conditions may differ. Like-named read-outs stand apart in the source and are kept apart here.

Experiments:
[1] = target: recombinant Icl (isocitrate lyase) (Mycobacterium tuberculosis, UniProt P9WKK7); assay: biochemical; assay type: biochemical, M. tuberculosis (CSU93); settings: for Ki: read-out: inhibition constants; for inhibit the activity to approximately: 5 mM inhibitor concentration
[2] = system: wild type M. smegmatis mc^2155; assay type: cell-based; settings: discs 30 mM and 60 mM
[3] = system: O=C(O)CC(C(=O)O)C(O)C(=O)O; assay: purified protein, by the assay type

Chain of recombinant Icl (isocitrate lyase) (P9WKK7 whole entry): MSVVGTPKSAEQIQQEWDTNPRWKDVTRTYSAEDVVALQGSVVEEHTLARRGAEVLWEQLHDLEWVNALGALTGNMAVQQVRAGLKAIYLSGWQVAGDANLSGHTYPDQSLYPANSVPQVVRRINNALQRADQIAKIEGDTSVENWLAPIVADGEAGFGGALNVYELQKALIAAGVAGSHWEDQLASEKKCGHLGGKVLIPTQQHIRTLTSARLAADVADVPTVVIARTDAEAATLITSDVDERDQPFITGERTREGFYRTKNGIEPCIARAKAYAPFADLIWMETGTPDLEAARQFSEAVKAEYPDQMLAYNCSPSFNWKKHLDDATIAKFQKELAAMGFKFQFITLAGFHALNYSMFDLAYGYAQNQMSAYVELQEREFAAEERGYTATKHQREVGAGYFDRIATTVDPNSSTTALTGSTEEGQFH

Row | Compound | inhibitory effect on Icl activity [1] | Ki [1] | also measured
1 | O=C(O)[C@H](O)COP(=O)(O)O [3-Phosphoglycerate] | no inhibitory effect |  | 
2 | O=C(O)CC[N+](=O)[O-] [3-nitropropionate] |  | 3 µM | effect on growth, inhibition zone around disc ([2]; grown on acetate): restricted to growth on acetate; also recorded: inhibitory; effect on growth, inhibition zone around disc ([2]; grown on glucose): not observed; also recorded: no effect
3 | O=C(O)[C@H](O)[C@@H](O)[C@H](O)[C@H](O)COP(=O)(O)O [6-phosphogluconate] | no inhibitory effect |  | 
4 | C=C(CC(=O)O)C(=O)O [Itaconate] |  | 120 µM | 
5 | O=C(O)C(=O)O [Oxalate] |  |  | inhibit the activity to approximately [1]: approximately 50%
6 | O=C(O)C(=O)CBr [bromopyruvate, 3-bromopyruvate] |  | 120 µM | effect on growth, inhibition zone around disc ([2]; grown on glucose): no effect
7 | O=C(COP(=O)(O)O)[C@@H](O)[C@H](O)[C@H](O)COP(=O)(O)O [fructose-1,6-bisphosphate] | no inhibitory effect |  | 
8 | C=C1CC(=O)OC1=O [itaconic anhydride] |  | 190 µM | 
9 | O=C(O)CC(O)C(=O)O (stereo not shown) [malate] |  |  | inhibit the activity to approximately [1]: approximately 50%
10 | O=C(O)CC(=O)O [malonic acid] | no inhibitory effect |  | 
11 | O=C(O)CCC(=O)O [succinate] |  |  | inhibitory effect on the recombinant enzyme [1]: did not reveal any inhibitory effect
12 | recombinant AceA (isocitrate lyase) (Mycobacterium tuberculosis CDC1551) |  |  | Km ([3]; other: Tricine-HCl buffer at pH 7.5, pH 7.5): 1300 µM
13 | recombinant Icl (isocitrate lyase) (Mycobacterium tuberculosis H37Rv) |  |  | Km ([3]; other: Hanes-Woolf plot): 145 µM
